Data reported in article PMC10838953.

Columns and labels:
BRSK1 = BRSK1 (Homo sapiens, UniProt Q8TDC3); assay: biochemical; conditions: read-out: %Ctrl @ 2000nM
PIK3CD = PIK3CD (Homo sapiens, UniProt O00329); assay: biochemical; conditions: read-out: %Ctrl @ 2000nM
[1] = target: RPS6KA5(Kin.Dom.2-C-terminal) (Homo sapiens, UniProt O75582); assay: biochemical
MARK3 = MARK3 (Homo sapiens, UniProt P27448); assay: biochemical; conditions: read-out: %Ctrl @ 2000nM
SGK = SGK (Homo sapiens, UniProt O00141); assay: biochemical; conditions: read-out: %Ctrl @ 2000nM
Chain of SGK (O00141 whole entry): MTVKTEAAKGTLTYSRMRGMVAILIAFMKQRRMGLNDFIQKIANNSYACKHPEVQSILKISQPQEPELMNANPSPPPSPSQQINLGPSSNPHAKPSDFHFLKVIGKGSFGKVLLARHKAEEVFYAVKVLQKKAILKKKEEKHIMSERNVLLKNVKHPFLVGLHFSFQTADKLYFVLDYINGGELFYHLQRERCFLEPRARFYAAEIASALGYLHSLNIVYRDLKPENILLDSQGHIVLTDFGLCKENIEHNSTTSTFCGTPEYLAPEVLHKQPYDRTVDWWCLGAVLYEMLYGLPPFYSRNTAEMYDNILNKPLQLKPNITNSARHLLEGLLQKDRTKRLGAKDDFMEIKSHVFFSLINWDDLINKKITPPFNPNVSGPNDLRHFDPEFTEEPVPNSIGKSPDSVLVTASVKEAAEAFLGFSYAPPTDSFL

ASK2 = ASK2 (Homo sapiens, UniProt O95382); assay: biochemical; conditions: read-out: %Ctrl @ 2000nM
[2] = target: ABL1(E255K)-phosphorylated (Homo sapiens, UniProt P00519, E255K); assay: biochemical; conditions: read-out: %Ctrl @ 2000nM
NEK6 = NEK6 (Homo sapiens, UniProt Q9HC98); assay: biochemical; conditions: read-out: %Ctrl @ 2000nM
CSF1R = CSF1R (Homo sapiens, UniProt P07333); assay: biochemical; conditions: read-out: %Ctrl @ 2000nM
FES = FES (Homo sapiens, UniProt P07332); assay: biochemical; conditions: read-out: %Ctrl @ 2000nM
Chain of FES (P07332 whole entry): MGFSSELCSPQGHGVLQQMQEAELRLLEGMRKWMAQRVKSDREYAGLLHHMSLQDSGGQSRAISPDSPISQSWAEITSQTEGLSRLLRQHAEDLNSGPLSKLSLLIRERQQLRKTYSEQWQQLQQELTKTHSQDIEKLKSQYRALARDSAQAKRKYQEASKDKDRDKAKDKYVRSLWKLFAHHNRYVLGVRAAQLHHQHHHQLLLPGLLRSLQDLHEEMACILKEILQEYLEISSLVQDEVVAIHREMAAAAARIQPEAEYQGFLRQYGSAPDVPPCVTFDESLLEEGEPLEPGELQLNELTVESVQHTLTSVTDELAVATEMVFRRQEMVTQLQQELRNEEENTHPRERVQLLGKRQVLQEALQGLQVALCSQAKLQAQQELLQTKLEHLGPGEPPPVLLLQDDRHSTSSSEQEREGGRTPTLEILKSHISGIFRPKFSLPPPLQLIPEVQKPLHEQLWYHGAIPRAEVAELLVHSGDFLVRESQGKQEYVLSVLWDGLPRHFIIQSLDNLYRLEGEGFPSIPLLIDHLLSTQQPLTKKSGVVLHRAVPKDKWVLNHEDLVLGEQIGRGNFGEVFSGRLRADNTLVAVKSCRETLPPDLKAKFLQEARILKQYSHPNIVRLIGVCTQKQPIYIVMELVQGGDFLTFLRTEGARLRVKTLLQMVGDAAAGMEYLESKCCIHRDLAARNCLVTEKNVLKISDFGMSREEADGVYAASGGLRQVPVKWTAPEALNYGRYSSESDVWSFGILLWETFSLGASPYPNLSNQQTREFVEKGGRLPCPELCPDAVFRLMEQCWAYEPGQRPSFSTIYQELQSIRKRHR

[3] = target: RSK2(Kin.Dom.2-C-terminal) (Homo sapiens, UniProt P51812); assay: biochemical; conditions: read-out: %Ctrl @ 2000nM
MLCK = MLCK (Homo sapiens, UniProt Q32MK0); assay: biochemical; conditions: read-out: %Ctrl @ 2000nM
SgK110 = SgK110 (Homo sapiens, UniProt P0C264); assay: biochemical; conditions: read-out: %Ctrl @ 2000nM
TAK1 = TAK1 (Homo sapiens, UniProt O43318); assay: biochemical; conditions: read-out: %Ctrl @ 2000nM
TLK2 = TLK2 (Homo sapiens, UniProt Q86UE8); assay: biochemical; conditions: read-out: %Ctrl @ 2000nM
PRKD2 = PRKD2 (Homo sapiens, UniProt Q9BZL6); assay: biochemical; conditions: read-out: %Ctrl @ 2000nM
Chain of PRKD2 (Q9BZL6 whole entry): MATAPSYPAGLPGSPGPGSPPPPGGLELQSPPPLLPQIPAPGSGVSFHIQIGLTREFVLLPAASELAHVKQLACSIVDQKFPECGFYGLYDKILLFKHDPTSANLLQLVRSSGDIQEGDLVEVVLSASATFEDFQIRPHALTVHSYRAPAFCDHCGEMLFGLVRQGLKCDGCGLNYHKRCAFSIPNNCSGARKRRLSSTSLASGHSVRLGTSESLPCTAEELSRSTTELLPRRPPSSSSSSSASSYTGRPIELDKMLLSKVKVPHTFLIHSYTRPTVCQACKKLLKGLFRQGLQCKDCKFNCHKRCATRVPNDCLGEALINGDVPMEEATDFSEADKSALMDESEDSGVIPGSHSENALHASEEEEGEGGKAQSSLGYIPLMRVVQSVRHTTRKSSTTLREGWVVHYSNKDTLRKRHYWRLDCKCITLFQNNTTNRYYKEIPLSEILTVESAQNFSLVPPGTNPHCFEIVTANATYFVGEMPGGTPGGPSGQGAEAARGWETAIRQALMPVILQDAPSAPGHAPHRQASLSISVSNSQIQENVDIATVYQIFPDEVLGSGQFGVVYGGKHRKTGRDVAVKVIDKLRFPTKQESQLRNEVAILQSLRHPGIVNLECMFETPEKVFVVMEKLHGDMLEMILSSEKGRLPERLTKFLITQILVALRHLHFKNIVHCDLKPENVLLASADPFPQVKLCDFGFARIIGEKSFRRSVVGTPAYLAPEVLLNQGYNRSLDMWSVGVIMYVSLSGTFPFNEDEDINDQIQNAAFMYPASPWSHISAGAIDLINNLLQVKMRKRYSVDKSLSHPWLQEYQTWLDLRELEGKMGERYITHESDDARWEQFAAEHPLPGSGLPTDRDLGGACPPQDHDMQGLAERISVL

MAP3K15 = MAP3K15 (Homo sapiens, UniProt Q6ZN16); assay: biochemical; conditions: read-out: %Ctrl @ 2000nM
BUB1 = BUB1 (Homo sapiens, UniProt O43683); assay: biochemical; conditions: read-out: %Ctrl @ 2000nM
PRKD1 = PRKD1 (Homo sapiens, UniProt Q15139); assay: biochemical; conditions: read-out: %Ctrl @ 2000nM
HEK293 cells = conditions: high concentrations
[4] = target: ABL1(F317I)-phosphorylated (Homo sapiens, UniProt P00519, F317I); assay: biochemical; conditions: read-out: %Ctrl @ 2000nM
WEE1 = WEE1 (Homo sapiens, UniProt P30291); assay: biochemical; conditions: read-out: %Ctrl @ 2000nM
PKN1 = PKN1 (Homo sapiens, UniProt Q16512); assay: biochemical; conditions: read-out: %Ctrl @ 2000nM
PRP4 = PRP4 (Homo sapiens, UniProt Q13523); assay: biochemical; conditions: read-out: %Ctrl @ 2000nM
Chain of PRP4 (Q13523 whole entry): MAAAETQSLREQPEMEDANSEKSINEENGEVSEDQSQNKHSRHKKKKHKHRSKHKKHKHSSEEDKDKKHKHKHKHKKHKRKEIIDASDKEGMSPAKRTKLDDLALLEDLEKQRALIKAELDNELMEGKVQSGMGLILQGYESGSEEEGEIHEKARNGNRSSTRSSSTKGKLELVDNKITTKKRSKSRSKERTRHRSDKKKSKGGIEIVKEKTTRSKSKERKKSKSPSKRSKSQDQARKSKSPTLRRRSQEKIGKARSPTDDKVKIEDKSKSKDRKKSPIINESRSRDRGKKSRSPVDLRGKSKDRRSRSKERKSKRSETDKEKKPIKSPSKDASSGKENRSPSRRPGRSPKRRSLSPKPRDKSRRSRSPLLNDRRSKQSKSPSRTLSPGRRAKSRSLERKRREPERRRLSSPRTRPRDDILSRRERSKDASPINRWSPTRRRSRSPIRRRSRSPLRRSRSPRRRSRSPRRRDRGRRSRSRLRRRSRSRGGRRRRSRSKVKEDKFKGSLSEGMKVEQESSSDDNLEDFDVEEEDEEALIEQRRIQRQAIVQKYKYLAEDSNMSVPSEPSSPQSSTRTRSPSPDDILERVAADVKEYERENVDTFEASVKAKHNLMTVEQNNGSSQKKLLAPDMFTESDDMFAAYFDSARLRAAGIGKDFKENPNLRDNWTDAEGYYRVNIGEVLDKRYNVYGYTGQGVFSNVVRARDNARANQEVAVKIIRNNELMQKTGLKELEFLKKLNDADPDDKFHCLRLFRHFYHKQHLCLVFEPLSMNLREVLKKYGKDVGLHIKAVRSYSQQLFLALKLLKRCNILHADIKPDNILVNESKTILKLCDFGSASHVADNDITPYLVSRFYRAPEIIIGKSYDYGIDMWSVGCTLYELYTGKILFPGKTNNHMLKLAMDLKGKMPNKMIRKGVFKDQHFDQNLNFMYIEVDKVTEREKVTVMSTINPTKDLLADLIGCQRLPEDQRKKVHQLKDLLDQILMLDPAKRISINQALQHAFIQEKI

CDK4-cyclinD3 = CDK4-cyclinD3 (Homo sapiens, UniProt P11802); assay: biochemical; conditions: read-out: %Ctrl @ 2000nM
AMPK-alpha2 = AMPK-alpha2 (Homo sapiens, UniProt P54646); assay: biochemical; conditions: read-out: %Ctrl @ 2000nM
Chain of AMPK-alpha2 (P54646 whole entry): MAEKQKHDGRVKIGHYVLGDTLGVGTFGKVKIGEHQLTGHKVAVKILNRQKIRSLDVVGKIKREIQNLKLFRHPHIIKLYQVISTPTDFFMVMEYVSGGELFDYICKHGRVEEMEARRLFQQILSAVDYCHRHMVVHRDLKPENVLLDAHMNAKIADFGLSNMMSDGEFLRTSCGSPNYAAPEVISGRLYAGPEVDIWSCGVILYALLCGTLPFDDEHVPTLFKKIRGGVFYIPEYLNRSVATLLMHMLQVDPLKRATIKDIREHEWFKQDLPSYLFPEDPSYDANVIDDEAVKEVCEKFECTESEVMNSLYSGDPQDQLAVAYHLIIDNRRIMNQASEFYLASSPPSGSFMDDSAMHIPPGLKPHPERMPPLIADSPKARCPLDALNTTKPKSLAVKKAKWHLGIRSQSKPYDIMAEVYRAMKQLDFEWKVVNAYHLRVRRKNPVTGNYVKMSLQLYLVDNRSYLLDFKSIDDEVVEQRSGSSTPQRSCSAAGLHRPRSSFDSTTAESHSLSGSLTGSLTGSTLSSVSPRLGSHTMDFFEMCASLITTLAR

TGFBR2 = TGFBR2 (Homo sapiens, UniProt P37173); assay: biochemical; conditions: read-out: %Ctrl @ 2000nM
IRAK4 = IRAK4 (Homo sapiens, UniProt Q9NWZ3); assay: biochemical; conditions: read-out: %Ctrl @ 2000nM
PIK3CG = PIK3CG (Homo sapiens, UniProt P48736); assay: biochemical; conditions: read-out: %Ctrl @ 2000nM
ACVR1 = ACVR1 (Homo sapiens, UniProt Q04771); assay: biochemical; conditions: read-out: %Ctrl @ 2000nM
Chain of ACVR1 (Q04771 21-509): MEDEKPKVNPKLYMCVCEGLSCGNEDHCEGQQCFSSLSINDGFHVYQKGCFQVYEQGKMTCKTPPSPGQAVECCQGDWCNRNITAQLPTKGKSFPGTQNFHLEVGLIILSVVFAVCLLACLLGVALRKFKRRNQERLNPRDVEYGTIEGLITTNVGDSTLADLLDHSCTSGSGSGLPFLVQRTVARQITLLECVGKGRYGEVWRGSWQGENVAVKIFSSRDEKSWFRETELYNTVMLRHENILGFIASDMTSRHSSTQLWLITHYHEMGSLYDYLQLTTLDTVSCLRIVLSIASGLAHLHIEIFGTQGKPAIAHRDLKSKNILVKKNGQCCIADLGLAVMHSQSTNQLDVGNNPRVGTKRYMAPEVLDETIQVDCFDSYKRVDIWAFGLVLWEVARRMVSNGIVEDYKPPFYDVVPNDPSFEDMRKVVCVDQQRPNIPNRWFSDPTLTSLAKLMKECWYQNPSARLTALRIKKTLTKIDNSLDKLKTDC

NEK2 = NEK2 (Homo sapiens, UniProt P51955); assay: biochemical; conditions: read-out: %Ctrl @ 2000nM
Chain of NEK2 (P51955 whole entry): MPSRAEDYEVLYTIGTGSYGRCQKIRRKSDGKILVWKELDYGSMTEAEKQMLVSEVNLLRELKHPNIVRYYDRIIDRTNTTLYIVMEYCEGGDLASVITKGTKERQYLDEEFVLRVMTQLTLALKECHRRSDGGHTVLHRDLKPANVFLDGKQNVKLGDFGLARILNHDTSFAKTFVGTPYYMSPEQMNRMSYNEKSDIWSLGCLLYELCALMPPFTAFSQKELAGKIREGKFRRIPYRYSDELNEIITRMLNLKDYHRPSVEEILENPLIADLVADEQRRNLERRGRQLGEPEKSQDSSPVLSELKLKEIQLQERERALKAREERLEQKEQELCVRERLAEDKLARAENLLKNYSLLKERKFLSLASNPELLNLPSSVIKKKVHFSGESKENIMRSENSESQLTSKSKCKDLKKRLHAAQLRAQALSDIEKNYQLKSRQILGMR

TAOK3 = TAOK3 (Homo sapiens, UniProt Q9H2K8); assay: biochemical; conditions: read-out: %Ctrl @ 2000nM
FLT3(N841I) = FLT3(N841I) (Homo sapiens, UniProt P36888, N841I); assay: biochemical; conditions: read-out: %Ctrl @ 2000nM
GSK3B = GSK3B (Homo sapiens, UniProt P49841); assay: biochemical; conditions: read-out: %Ctrl @ 2000nM
BMPR1B = BMPR1B (Homo sapiens, UniProt O00238); assay: biochemical; conditions: read-out: %Ctrl @ 2000nM
QSK = QSK (Homo sapiens, UniProt Q9Y2K2); assay: biochemical; conditions: read-out: %Ctrl @ 2000nM
PIK3CA = PIK3CA (Homo sapiens, UniProt P42336); assay: biochemical; conditions: read-out: %Ctrl @ 2000nM
CK2 in HEK293 cells = conditions: read-out: IC50 CK2 activity in cell extracts
EPHA6 = EPHA6 (Homo sapiens, UniProt Q9UF33); assay: biochemical; conditions: read-out: %Ctrl @ 2000nM
KIT-autoinhibited = KIT-autoinhibited (Homo sapiens, UniProt P10721); assay: biochemical; conditions: read-out: %Ctrl @ 2000nM
CAMK2B = CAMK2B (Homo sapiens, UniProt Q13554); assay: biochemical; conditions: read-out: %Ctrl @ 2000nM
BLK = BLK (Homo sapiens, UniProt P51451); assay: biochemical; conditions: read-out: %Ctrl @ 2000nM
MLK1 = MLK1 (Homo sapiens, UniProt P80192); assay: biochemical; conditions: read-out: %Ctrl @ 2000nM

Chain of RPS6KA5(Kin.Dom.2-C-terminal) (O75582 388-802 limits assumed): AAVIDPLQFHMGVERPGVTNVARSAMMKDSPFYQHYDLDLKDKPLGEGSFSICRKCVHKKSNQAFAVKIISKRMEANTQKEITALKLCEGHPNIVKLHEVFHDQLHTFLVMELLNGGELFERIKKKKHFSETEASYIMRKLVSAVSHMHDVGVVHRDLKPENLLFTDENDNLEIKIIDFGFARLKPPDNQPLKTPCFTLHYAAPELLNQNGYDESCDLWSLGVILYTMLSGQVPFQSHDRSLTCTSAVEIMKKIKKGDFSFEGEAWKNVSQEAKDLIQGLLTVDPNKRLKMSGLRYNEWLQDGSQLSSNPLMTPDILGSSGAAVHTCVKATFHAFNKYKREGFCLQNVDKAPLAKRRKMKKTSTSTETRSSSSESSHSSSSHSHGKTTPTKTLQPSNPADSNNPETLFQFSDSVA

## CC(C)COC(=O)c1[nH]c2ccc(F)cc2c1-c1cn(CC2CCN(CCNS(=O)(=O)c3ccc(CC(C)C)cc3)CC2)nn1 [AB668, isobutyl 5-fluoro-3-(1-((1-(2-((4-isobutylphenyl)sulfonamido)ethyl)piperidin-4-yl)methyl)-1H-1,2,3-triazol-4-yl)-1H-indole-2-carboxylate]
BRSK1
  remaining activity at 2 µM: 78%
PIK3CD
  remaining activity at 2 µM: 91%
[1]; read-out: %Ctrl @ 2000nM
  remaining activity at 2 µM: 43%
[1]; read-out: percentage inhibition
  inhibition at 2 µM: > 50%
MARK3
  remaining activity at 2 µM: 0%
SGK
  remaining activity at 2 µM: 100%
ASK2
  remaining activity at 2 µM: 75%
[2]
  remaining activity at 2 µM: 67%
NEK6
  remaining activity at 2 µM: 87%
CSF1R
  remaining activity at 2 µM: 100%
FES
  remaining activity at 2 µM: 91%
[3]
  remaining activity at 2 µM: 81%
MLCK
  remaining activity at 2 µM: 100%
SgK110
  remaining activity at 2 µM: 71%
TAK1
  remaining activity at 2 µM: 84%
TLK2
  remaining activity at 2 µM: 88%
PRKD2
  remaining activity at 2 µM: 88%
MAP3K15
  remaining activity at 2 µM: 51%
BUB1
  remaining activity at 2 µM: 94%
PRKD1
  remaining activity at 2 µM: 100%
HEK293 cells
  cytotoxicity: no cytotoxicity
[4]
  remaining activity at 2 µM: 96%
WEE1
  remaining activity at 2 µM: 96%
PKN1
  remaining activity at 2 µM: 91%
PRP4
  remaining activity at 2 µM: 95%
CDK4-cyclinD3
  remaining activity at 2 µM: 96%
AMPK-alpha2
  remaining activity at 2 µM: 100%
TGFBR2
  remaining activity at 2 µM: 90%
IRAK4
  remaining activity at 2 µM: 92%
PIK3CG
  remaining activity at 2 µM: 90%
ACVR1
  remaining activity at 2 µM: 100%
NEK2
  remaining activity at 2 µM: 90%
TAOK3
  remaining activity at 2 µM: 100%
FLT3(N841I)
  remaining activity at 2 µM: 95%
GSK3B
  remaining activity at 2 µM: 100%
BMPR1B
  remaining activity at 2 µM: 100%
QSK
  remaining activity at 2 µM: 85%
PIK3CA
  remaining activity at 2 µM: 82%
CK2 in HEK293 cells
  IC50: 600 ± 110 nM
EPHA6
  remaining activity at 2 µM: 83%
KIT-autoinhibited
  remaining activity at 2 µM: 96%
CAMK2B
  remaining activity at 2 µM: 96%
BLK
  remaining activity at 2 µM: 100%
MLK1
  remaining activity at 2 µM: 96%
